Test results from patent US8765748B2, “Indazolyl, benzimidazolyl, benzotriazolyl substituted indolinone derivatives as kinase inhibitors useful in the treatment of cancer” (University Health Network, priority 2007, dated 2014).

How the values were obtained:
Test in all cases: Kinase Selectivity Assay (CEREP, HTRF)
Assay type in all cases: biochemical
BMX kinase (Etk) = target: T1, BMX kinase (Etk) (Homo sapiens, UniProt P51813); conditions: read-out: % Inhibition at 10 μM Concentration, BMX (Etk)
T1 construct: CEREP, France (ran the assays)
T1 sequence (P51813 1-675): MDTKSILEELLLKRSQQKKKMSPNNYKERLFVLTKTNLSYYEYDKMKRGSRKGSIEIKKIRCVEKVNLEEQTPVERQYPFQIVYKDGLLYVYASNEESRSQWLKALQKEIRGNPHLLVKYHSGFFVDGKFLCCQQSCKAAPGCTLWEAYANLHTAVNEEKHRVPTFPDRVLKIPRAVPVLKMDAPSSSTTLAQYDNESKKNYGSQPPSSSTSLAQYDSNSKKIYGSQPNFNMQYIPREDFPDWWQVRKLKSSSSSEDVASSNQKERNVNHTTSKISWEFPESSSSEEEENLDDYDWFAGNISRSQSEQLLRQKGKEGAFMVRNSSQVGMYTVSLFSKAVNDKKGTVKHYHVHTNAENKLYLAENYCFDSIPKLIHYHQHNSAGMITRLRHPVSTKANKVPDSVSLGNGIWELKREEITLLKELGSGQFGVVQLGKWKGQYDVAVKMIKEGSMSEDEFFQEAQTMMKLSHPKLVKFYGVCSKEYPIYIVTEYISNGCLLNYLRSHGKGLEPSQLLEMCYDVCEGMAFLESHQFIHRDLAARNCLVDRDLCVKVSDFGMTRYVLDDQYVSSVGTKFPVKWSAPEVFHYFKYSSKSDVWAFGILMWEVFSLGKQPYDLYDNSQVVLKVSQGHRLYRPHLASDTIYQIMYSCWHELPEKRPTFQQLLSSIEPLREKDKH
Experimental: (§1) kinase, ROCK2, RSK2, Src kinase, Syk, and TRKA. The % Inhibition was determined

CDC2/CDK1 (cycB) = target: T2, CDC2/CDK1 (cycB) (Homo sapiens, UniProt P06493); conditions: read-out: % Inhibition at 10 μM Concentration, CDC2/CDK1
T2 construct: CEREP, France (ran the assays)
Experimental: as §1

CHK2 = target: T3, CHK2 (Homo sapiens, UniProt O96017); conditions: read-out: % Inhibition at 10 μM Concentration, CHK2
T3 construct: CEREP, France (ran the assays)
Experimental: as §1

FGFR2 kinase = target: T4, FGFR2 kinase (Homo sapiens, UniProt P21802); conditions: read-out: % Inhibition at 10 μM Concentration, FGFR2
T4 construct: CEREP, France (ran the assays)
Experimental: as §1

FGFR4 kinase = target: T5, FGFR4 kinase (Homo sapiens, UniProt P22455); conditions: read-out: % Inhibition at 10 μM Concentration, FGFR4
T5 construct: CEREP, France (ran the assays)
Experimental: as §1

FLT-1 kinase (VEGFR1) = target: T6, FLT-1 kinase (VEGFR1) (Homo sapiens, UniProt P17948); conditions: read-out: % Inhibition at 10 μM Concentration, FLT-1 (VEGFR1)
T6 construct: CEREP, France (ran the assays)
Experimental: as §1

Fyn kinase = Fyn kinase (Homo sapiens, UniProt P06241); conditions: read-out: % Inhibition at 10 μM Concentration, Fyn
Experimental: as §1

IRK (InsR) = IRK (InsR) (Homo sapiens, UniProt P06213); conditions: read-out: % Inhibition at 10 μM Concentration, IRK (InsR)
Experimental: as §1

Lck kinase = Lck kinase (Homo sapiens, UniProt P06239); conditions: read-out: % Inhibition at 10 μM Concentration, Lck
Experimental: as §1

Lyn = Lyn (Homo sapiens, UniProt P07948); conditions: read-out: % Inhibition at 10 μM Concentration, Lyn
Experimental: as §1

MEK1/MAP2K1 = MEK1/MAP2K1 (Homo sapiens, UniProt Q02750); conditions: read-out: % Inhibition at 10 μM Concentration, MEK1/MAP2K1
Experimental: as §1

PKA = PKA (Homo sapiens, UniProt P17612); conditions: read-out: % Inhibition at 10 μM Concentration, PKA
Experimental: as §1

PKCb1 = PKCb1 (Homo sapiens, UniProt P05771); conditions: read-out: % Inhibition at 10 μM Concentration, PKCbeta 1
Experimental: as §1

PKCg = PKCg (Homo sapiens, UniProt P05129); conditions: read-out: % Inhibition at 10 μM Concentration, PKCgamma
Experimental: as §1

ROCK2 = ROCK2 (Homo sapiens, UniProt O75116); conditions: read-out: % Inhibition at 10 μM Concentration, ROCK2
Experimental: as §1

RSK2 = RSK2 (Homo sapiens, UniProt P51812); conditions: read-out: % Inhibition at 10 μM Concentration, RSK2
Experimental: as §1

Ret = Ret (Homo sapiens, UniProt P07949); conditions: read-out: % Inhibition at 10 μM Concentration, Ret
Experimental: as §1

p38a kinase = p38a kinase (Homo sapiens, UniProt Q16539); conditions: read-out: % Inhibition at 10 μM Concentration, p38alpha
Experimental: as §1

p38g kinase = target: T7, p38g kinase (Homo sapiens, UniProt P53778); conditions: read-out: % Inhibition at 10 μM Concentration, p38gamma
T7 sequence (P53778 1-367): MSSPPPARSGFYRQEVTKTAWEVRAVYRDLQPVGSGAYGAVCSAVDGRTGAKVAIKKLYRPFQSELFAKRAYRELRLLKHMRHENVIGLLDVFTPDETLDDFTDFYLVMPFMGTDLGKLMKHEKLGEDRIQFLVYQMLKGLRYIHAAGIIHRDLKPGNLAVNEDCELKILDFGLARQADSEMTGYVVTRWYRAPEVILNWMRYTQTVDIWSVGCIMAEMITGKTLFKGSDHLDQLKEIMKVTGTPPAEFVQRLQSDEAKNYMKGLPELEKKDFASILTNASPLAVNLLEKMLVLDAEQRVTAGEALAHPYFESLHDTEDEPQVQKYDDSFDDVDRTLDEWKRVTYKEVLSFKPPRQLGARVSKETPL
Experimental: as §1

Sequence of Lck kinase (P06239 whole entry): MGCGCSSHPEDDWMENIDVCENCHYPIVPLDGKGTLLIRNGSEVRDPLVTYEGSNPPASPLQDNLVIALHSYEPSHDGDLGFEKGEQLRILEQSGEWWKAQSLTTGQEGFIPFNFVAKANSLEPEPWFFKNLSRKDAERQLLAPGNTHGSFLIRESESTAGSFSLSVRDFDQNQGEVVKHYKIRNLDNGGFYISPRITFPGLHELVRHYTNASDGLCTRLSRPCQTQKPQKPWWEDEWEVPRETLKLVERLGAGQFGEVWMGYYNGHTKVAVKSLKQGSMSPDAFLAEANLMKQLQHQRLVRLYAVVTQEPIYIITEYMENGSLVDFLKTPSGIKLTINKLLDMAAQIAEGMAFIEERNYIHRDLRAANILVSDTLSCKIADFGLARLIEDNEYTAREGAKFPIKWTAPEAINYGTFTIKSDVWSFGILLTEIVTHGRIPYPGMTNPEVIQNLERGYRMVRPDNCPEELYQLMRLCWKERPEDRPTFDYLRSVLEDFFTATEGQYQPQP
T6 sequence (P17948 27-1338): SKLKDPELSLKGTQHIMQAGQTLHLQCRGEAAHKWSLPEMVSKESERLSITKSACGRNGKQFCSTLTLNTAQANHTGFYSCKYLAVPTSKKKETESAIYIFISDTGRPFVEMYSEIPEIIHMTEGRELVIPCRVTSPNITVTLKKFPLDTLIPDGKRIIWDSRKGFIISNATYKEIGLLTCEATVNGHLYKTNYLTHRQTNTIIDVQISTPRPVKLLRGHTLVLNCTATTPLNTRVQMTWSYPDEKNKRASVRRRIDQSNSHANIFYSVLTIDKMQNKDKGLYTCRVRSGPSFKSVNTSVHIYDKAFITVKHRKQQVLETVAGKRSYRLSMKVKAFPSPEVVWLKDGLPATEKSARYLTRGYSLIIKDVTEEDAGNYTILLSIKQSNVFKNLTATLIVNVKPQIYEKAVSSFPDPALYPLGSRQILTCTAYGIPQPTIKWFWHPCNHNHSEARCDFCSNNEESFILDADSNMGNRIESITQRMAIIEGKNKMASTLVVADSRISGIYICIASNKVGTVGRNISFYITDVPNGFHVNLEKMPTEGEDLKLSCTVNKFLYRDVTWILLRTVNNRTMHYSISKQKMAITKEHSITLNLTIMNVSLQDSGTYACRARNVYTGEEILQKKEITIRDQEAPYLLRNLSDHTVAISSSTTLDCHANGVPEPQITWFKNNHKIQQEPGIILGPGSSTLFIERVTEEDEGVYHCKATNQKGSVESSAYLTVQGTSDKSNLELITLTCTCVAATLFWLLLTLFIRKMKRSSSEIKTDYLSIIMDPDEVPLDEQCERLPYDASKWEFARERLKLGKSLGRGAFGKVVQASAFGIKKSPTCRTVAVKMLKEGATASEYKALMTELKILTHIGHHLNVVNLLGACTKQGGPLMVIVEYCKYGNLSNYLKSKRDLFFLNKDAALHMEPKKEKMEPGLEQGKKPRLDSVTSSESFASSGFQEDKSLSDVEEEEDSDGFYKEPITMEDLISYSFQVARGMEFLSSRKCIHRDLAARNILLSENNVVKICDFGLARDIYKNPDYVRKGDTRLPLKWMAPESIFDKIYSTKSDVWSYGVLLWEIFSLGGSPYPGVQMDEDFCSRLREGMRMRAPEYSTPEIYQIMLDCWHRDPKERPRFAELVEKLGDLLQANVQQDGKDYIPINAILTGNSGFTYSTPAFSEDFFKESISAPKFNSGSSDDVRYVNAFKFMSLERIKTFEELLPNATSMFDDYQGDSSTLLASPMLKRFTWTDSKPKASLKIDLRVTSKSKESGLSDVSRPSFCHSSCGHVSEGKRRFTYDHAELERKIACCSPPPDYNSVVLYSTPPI
T4 sequence (P21802 22-821): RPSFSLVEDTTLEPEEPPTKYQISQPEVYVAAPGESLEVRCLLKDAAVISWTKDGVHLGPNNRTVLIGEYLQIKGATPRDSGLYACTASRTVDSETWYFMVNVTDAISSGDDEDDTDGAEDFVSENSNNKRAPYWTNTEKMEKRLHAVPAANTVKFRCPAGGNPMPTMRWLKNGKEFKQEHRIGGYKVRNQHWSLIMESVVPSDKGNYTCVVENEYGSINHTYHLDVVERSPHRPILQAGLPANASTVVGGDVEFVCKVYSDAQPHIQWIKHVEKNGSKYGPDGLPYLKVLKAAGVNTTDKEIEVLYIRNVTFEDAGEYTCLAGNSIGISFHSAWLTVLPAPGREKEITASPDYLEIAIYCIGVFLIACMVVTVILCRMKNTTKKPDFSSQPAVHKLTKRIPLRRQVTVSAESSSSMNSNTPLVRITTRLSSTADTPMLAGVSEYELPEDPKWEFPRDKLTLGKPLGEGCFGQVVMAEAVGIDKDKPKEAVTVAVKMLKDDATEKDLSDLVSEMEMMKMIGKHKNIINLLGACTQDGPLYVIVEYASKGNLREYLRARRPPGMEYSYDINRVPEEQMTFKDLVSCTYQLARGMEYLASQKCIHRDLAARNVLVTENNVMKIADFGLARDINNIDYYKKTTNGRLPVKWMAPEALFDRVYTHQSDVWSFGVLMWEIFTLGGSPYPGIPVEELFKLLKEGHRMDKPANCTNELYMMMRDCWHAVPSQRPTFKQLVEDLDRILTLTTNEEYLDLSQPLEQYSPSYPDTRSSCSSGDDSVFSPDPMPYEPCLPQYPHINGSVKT
Sequence of Ret (P07949 29-1114): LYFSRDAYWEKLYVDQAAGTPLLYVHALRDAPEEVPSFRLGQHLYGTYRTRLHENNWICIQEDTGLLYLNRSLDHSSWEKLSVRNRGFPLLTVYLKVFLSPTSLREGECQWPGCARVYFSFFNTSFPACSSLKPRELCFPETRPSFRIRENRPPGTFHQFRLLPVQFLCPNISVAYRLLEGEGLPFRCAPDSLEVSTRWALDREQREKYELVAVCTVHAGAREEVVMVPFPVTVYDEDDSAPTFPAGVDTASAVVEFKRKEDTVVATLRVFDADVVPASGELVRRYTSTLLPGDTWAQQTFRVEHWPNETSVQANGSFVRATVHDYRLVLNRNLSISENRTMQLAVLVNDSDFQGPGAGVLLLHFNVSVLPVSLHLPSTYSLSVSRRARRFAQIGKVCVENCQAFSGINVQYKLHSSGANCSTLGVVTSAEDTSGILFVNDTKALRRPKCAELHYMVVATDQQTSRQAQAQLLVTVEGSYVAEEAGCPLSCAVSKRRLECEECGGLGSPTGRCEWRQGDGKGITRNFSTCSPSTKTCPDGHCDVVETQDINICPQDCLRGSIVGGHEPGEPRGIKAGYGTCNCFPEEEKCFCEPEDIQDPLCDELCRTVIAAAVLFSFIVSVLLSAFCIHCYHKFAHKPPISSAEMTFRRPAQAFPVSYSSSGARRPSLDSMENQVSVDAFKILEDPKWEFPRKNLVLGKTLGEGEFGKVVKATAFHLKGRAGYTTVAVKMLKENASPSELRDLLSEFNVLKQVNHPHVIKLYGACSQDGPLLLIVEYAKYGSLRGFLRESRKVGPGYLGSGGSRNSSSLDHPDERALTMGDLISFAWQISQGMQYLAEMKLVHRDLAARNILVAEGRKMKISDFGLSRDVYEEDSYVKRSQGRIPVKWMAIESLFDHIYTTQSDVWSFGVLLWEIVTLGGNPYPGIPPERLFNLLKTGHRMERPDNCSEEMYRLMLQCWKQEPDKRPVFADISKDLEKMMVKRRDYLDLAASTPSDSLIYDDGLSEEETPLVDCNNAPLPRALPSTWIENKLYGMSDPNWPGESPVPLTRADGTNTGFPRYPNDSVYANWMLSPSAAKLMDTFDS
Sequence of Lyn (P07948 whole entry): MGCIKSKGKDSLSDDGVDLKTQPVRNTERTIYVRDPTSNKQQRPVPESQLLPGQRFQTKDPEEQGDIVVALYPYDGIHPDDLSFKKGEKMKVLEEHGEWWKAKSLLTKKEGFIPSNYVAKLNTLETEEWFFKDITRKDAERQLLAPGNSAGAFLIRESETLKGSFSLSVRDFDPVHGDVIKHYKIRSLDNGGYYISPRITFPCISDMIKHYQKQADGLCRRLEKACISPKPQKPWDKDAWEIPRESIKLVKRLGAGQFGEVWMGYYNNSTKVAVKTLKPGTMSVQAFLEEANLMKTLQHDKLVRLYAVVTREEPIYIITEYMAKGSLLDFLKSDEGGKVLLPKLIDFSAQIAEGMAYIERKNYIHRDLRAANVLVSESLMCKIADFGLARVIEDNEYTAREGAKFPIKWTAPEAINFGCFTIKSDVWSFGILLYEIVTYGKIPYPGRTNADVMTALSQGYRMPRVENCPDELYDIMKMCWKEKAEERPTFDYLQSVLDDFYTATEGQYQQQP
Sequence of Fyn kinase (P06241 whole entry): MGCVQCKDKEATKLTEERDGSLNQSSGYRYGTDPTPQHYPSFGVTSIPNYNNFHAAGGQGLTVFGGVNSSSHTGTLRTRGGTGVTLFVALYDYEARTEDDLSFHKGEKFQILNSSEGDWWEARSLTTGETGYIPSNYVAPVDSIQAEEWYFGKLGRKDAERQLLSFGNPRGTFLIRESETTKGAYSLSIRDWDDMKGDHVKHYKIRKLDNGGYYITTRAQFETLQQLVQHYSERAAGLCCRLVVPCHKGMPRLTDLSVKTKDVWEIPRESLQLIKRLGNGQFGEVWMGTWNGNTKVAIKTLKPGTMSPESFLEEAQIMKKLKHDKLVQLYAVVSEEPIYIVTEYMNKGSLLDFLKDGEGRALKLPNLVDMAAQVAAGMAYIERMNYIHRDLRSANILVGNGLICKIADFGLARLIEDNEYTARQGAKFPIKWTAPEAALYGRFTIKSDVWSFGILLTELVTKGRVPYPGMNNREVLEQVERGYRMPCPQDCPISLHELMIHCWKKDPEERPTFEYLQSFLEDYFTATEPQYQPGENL

| Structure (SMILES) | inhibition at 10 µM (BMX kinase (Etk)) [%] | inhibition at 10 µM (CDC2/CDK1 (cycB)) [%] | inhibition at 10 µM (CHK2) [%] | inhibition at 10 µM (FGFR2 kinase) [%] | inhibition at 10 µM (FGFR4 kinase) [%] | inhibition at 10 µM (FLT-1 kinase (VEGFR1)) [%] | inhibition at 10 µM (Fyn kinase) [%] | inhibition at 10 µM (IRK (InsR)) [%] | inhibition at 10 µM (Lck kinase) [%] | inhibition at 10 µM (Lyn) [%] | inhibition at 10 µM (MEK1/MAP2K1) [%] | inhibition at 10 µM (PKA) [%] | inhibition at 10 µM (PKCb1) [%] | inhibition at 10 µM (PKCg) [%] | inhibition at 10 µM (ROCK2) [%] | inhibition at 10 µM (RSK2) [%] | inhibition at 10 µM (Ret) [%] | inhibition at 10 µM (p38a kinase) [%] | inhibition at 10 µM (p38g kinase) [%] |
| --- | --- | --- | --- | --- | --- | --- | --- | --- | --- | --- | --- | --- | --- | --- | --- | --- | --- | --- | --- |
| O=C1Nc2ccccc2/C1=C\c1ccc2cn[nH]c2c1 [Example A5, (E)-3-((1H-indazol-6-yl)methylene)indolin-2-one] | -3 | 9 | 2 | 31 | -4 | 16 | 5 | 12 | 0 | -5 | 3 | -1 | -5 | -6 | 3 | 1 | 41 | 18 | 5 |
| COc1ccc2c(c1)C(=Cc1ccc3c(-c4ccc(N5CCN(C)CC5)nc4)n[nH]c3c1)C(=O)N2 (mixture of isomers) [Example A97, (E and Z)-5-methoxy-3-((3-(6-(4-methylpiperazin-1-yl)pyridin-3-yl)-1H-indazol-6-yl)methylene)indolin-2-one] | 9 | 15 | 4 | 35 | 30 | 73 | 13 | 9 | 89 | 85 | 9 | 0 | 2 | 0 | 22 | 37 | 93 | 11 | 1 |
| O=C1Nc2ccccc2C1=Cc1ccc2c(/C=C/c3ccccn3)n[nH]c2c1 (mixture of isomers) [Example A41, (E and Z)-3-((3-((E)-2-(pyridin-2-yl)vinyl)-1H-indazol-6-yl)methylene)indolin-2-one] | 53 | 62 | 22 | 97 | 38 | 99 | 91 | 34 | 88 | 98 | 46 | -4 | -2 | 0 | -3 | 38 | 98 | 16 | 2 |
| O=C1Nc2ccccc2/C1=C\c1ccc2[nH]nnc2c1 [Example A1, (E)-3-((1H-benzo[d][1,2,3]triazol-5-yl)methylene)indolin-2-one] | – | 2 | 14 | 68 | 18 | 0 | 24 | 13 | – | 14 | 20 | 9 | 1 | 9 | 1 | 4 | 67 | -8 | 14 |
| O=C1Nc2ccccc2/C1=C\c1ccc2c(/C=C/c3ccccc3Cl)n[nH]c2c1 [Example A60, (E)-3-((3-((E)-2-chlorostyryl)-1H-indazol-6-yl)methylene)indolin-2-one] | 18 | 18 | 6 | 10 | 6 | 42 | 70 | 6 | 30 | 88 | 16 | 7 | 0 | 3 | -1 | 0 | 33 | 1 | 10 |
